The conditions of data set [1]: human, in vivo.
Procedure: The volunteer fasted for 12 hours prior to the study. […] Controlled amount of boiled pasta was eaten after the 4 h time point. An initial blood sample (400 μl) was collected using a lancet at a fingertip into heparin tubes followed by samples at 1, 2, 3, 4, 5, 6, 7 and 8 hour after ingestion. Plasma was separated and immediately analysed for fatty acid composition.
The AUC (calculates area under the curve for concentration vs. time data) is calculated using linear trapezoidal rule. […] In this experiment, the doses are the same. […] The relative bioavailability of compound 1 and compound 5 is calculated with the same formula:
Data set [2] relates to A-549 human lung cancer cell line. Put plainly: in vitro cell viability assay (SRB) on A-549. In kind it is cell-based. The method, then: (§1) Five consecutive dilutions with a equal volume of DMSO was performed. […] Precipitation occur at high concentration of curcumin. […] Five consecutive dilutions with a equal volume of DMSO was performed. […] The cell viability assay is performed to measure the relative cell viability status of cancer cells upon exposure to test compounds in comparison to a positive control (etoposide) and a negative control (vehicule). Adherent cells growing in 96-well plates are exposed to test compounds for 3 days (72 hours). […] All conditions are tested in triplicate. […] After the incubation time, total protein content is quantified following staining with the anionic dye sulforhodamine B (SRB). The detection of luminescence, emitted by SRB, is completed by a microplate reader. This method of detection is based upon works published by Monks et al., in Journal of the National Cancer Institute vol. 82 no. […] The amount of luminescence is directly proportional to the number of living cells in culture. […] Cells were trypsinized using 0.25% trypsine (w/v)/0.53 mM EDTA solution (Hyclone), counted and plated at densities between 1000 and 3000 cells per well in flat bottom 96-well clear plates (Becton Dickinson) in 100 μl of appropriate culture medium supplemented with fetal bovine serum (Hyclone). […] Absorbance was read at 515 nm using a 96-well plate Multiskan Spectrum luminescence reader (Thermo Electron Corporation). […]

Data set [3] deals with human monocyte THP-1 cells. Kind of data set: LPS-induced TNF-α release by monocyte cells (ELISA). Type of data set: cell-based. Conditions: 100 ng/ml of LPS, 4 hours, composition 3 10 μg/ml, curcumin 5 μg/ml. The method, then:
Composition 3 (comprising compounds 1 and 5) at final concentration of 10 μg/ml, curcumin (5 μg/ml) and a 1:1 mixture of composition 3 ([…]) and curcumin (5 μg/ml) in DMSO (1%) was used for the in vitro assay. Composition 3 prepared according to the same procedure as previously described in Example 2)
The in vitro assay allows evaluation of the potential anti-inflammatory effects of compounds on the induced-release of pro-inflammatory mediator by monocyte cells. Typical human monocyte THP-1 cells, involved in inflammatory processes, are used in this assay. Measurement of pro-inflammatory mediator TNF-α is performed by ELISA (manufactured by R&D Systems) with artificial induction of pro-inflammatory agents by LPS (E. Coli 055:B5) during 4 hours. Known anti-inflammatory agent dexametazone was used as positive control.
(ELISA stands for enzyme-linked immunosorbent assay.)

The test system of data set [4] is HCT-15 human colon cancer cell line. Kind of data set: in vitro cell viability assay (SRB) on HCT-15. In kind it is cell-based. The method, then: as §1
The test system of data set [5] is PC-3 human prostate cancer cell line. Kind of data set: in vitro cell viability assay (SRB) on PC-3. In kind it is cell-based. The procedure:
as §1

≈ marks a conversion by molar mass, not a printed value.

In the case of `CC/C=C\C/C=C\C/C=C\C/C=C\C/C=C\CCCCCC(=O)OCC(O)CO` (stereo not drawn) [compound 1], the “relative bioavailability of compound 1 compared to compound 5” value in data set [1] turned out to be 2.20.

In the case of `COc1cc(/C=C/C(=O)CC(=O)/C=C/c2ccc(O)c(OC)c2)ccc1O` [curcumin], the IC50 in data set [2] (A549, A-549, 72 hours, SRB, concentration of the tested substance or composition, read-out: 50% growth inhibition concentration) is roughly 100 µg/mL (≈ 271 µM); in data set [4] (HCT-15, 72 hours, SRB, concentration of the tested substance or composition, read-out: 50% growth inhibition concentration) it was roughly 100 µg/mL (≈ 271 µM); in data set [5] (PC-3, 72 hours, SRB, concentration of the tested substance or composition, read-out: 50% growth inhibition concentration), roughly 75 µg/mL (≈ 204 µM). The TNF-α measured in data set [3] worked out at 100 µg/mL.

In data set [3], `C[C@@H]1C[C@H]2[C@@H]3CCC4=CC(=O)C=C[C@]4(C)[C@@]3(F)[C@@H](O)C[C@]2(C)[C@@]1(O)C(=O)CO` [dexametazone] had a TNF-α measured of 125 µg/mL.

Regarding `COc1cc([C@@H]2c3cc4c(cc3[C@@H](O[C@@H]3O[C@@H]5CO[C@@H](C)O[C@H]5[C@H](O)[C@H]3O)[C@H]3COC(=O)[C@H]23)OCO4)cc(OC)c1O` [etoposide], the inhibition (as a rule, the change of the read-out against control, counted positive when it falls) at 294 µg/mL in data set [2] (A549, A-549, positive control at 294 μg/ml, read-out: growth inhibition) was determined as 100%; in data set [4] (HCT-15, positive control at 294 μg/ml, read-out: growth inhibition), 100%; in data set [5] (PC-3, positive control at 294 μg/ml, read-out: growth inhibition), 100%.

(Values after patent US8222295B2, “Compositions comprising polyunsaturated fatty acid monoglycerides or derivatives thereof and uses thereof” (Centre de Recherche sur les Biotechnologies Marines, priority 2007, dated 2012).)
